test system: human T lymphocyte strain Jurkat (ATCC TIB-152) adhesion to ICAM-1; assay: T-cell adhesion assay (Jurkat cells on ICAM-1 coated plates); type: cell-based; details: BCECF-AM labelled Jurkat cells, ICAM-1 coated plate, fluorescence readout; read-out: EC50 of cell adhesion and inhibition
Experimental: Cell Adhesion Inhibition Experiments:
T-cell adhesion assay was performed using human T lymphocyte strain Jurkat (ATCC TIB-152): goat Anti-Human IgG (Fc specific) (Sigma 18885) was diluted to 10 μg/ml in PBS, incubated 100 μL per well/96 well plate at 4° C. for 12 hours. Liquid in the well plate was poured off, blocked with 200 μL of 1% BSA at 37° C. for 90 minutes, and washed three times with PBS. 50 μL of 1 μg/mL ICAM-1 (containing 0.1% BSA, 0.01% Tween 20) was added to each well and incubated at 37° C. for 3 hours. The plate was washed 3 times with assay buffer (20 mM HEPES pH 7.6, 140 mM NaCl, 1 mM MgCl2, 1 mM MnCl2, 0.2% glucose).
The Jurkat […] was centrifuged at 100-G, and cells were resuspended in an assay buffer (20 mM HEPES pH 7.6, 140 mM NaCl, 1 mM MgCl2, 1 mM MnCl2, 0.2% glucose) at 37° C.
2 μl of 1 mM of BCECF-AM per mL of the cell suspension was added. Incubated at 37° C. for 30 minutes, stirred up every 10 minutes during the incubation. After the incubation, the cells were washed with assay buffer at 37° C. The cells were suspended to a concentration of 6×10^6/mL.
The inhibitor was diluted to a final concentration of 2× in assay buffer, and 50 μL of the compound solution and […] of Jurkat cells were mixed at room temperature, and incubated at 37° C. for 30 minutes. 100 μL/well of cells and inhibitors were added to the plate and incubated for 1 hour at room temperature. The total fluorescence was measured by a fluorometer: ex: 485; em: 530; cutoff: 530 to measure the total fluorescence. The plate was washed once with the assay buffer and the fluorescence was measured with a fluorometer: ex: 485; em: 530; cutoff. The results are plotted as inhibition-concentration plots and EC50 is calculated using standard methods.

Row | Molecule | EC50 [nM]
1 | 2-(2,6-dichloro-4-(2-(methyl(3-hydroxyphenyl)phosphoryl)ethyl)benzylamino)-3-(3,5-(dimethylsulfonyl)phenyl)propionic Acid [Example 36] | 30

same assay, conditions: Homo sapiens; BCECF-AM labelled Jurkat cells, ICAM-1 coated plate, fluorescence readout; read-out: EC50 of cell adhesion and inhibition

Row | Molecule | EC50 [nM]
2 | CS(=O)(=O)c1cccc(C[C@H](NC(=O)c2c(Cl)cc(CCP(=O)(O)c3ccccc3)cc2Cl)C(=O)O)c1 [Example 1, (2s)-2-(2,6-dichloro-4-(2-(hydroxy(phenyl)phosphoryl)ethyl)benzamido)-3-(3-(methylsulfonyl)phenyl)propionic Acid] | 30
3 | COP(=O)(C#Cc1cc(Cl)c(C(=O)N[C@@H](Cc2cccc(S(C)(=O)=O)c2)C(=O)O)c(Cl)c1)c1ccccc1 (some centres unmarked) [Example 5] | 22
4 | CCOP(=O)(CCc1cc(Cl)c(C(=O)N[C@@H](Cc2cccc(S(C)(=O)=O)c2)C(=O)O)c(Cl)c1)c1cccc(O)c1 (some centres unmarked) [Example 6, (2s)-2-(2,6-dichloro-4-(2-(ethoxy(m-hydroxyphenyl)phosphoryl)ethyl)benzamido)-3-(3-(methylsulfonyl)phenyl)propionic Acid] | 17
5 | COP(=O)(C#Cc1cc(Cl)c(C(=O)N[C@@H](Cc2cccc(S(C)(=O)=O)c2)C(=O)O)c(Cl)c1)c1cccc(O)c1 (some centres unmarked) [Example 7] | 7.2
6 | COP(=O)(CCc1cc(Cl)c(C(=O)N[C@@H](Cc2cccc(S(C)(=O)=O)c2)C(=O)O)c(Cl)c1)c1cccc(O)c1 (some centres unmarked) [Example 8, (2s)-2-(2,6-dichloro-4-(2-(methoxy(3-hydroxyphenyl)phosphoryl)ethyl)benzylamido)-3-(3-(methylsulfonyl)phenyl)propionic Acid] | 6.2
7 | COc1cccc(P(=O)(C#Cc2cc(Cl)c(C(=O)N[C@@H](Cc3cccc(S(C)(=O)=O)c3)C(=O)O)c(Cl)c2)OC)c1 (some centres unmarked) [Example 12] | 29

Now from value to molecule:

Row | EC50 [nM] | Molecule
8 | 9.4 | CS(=O)(=O)c1cccc(C[C@H](NC(=O)c2c(Cl)cc(C#CP(=O)(O)c3cccc(O)c3)cc2Cl)C(=O)O)c1 [Example 2]
9 | 8.5 | CS(=O)(=O)c1cccc(C[C@H](NC(=O)c2c(Cl)cc(CCP(=O)(O)c3cccc(O)c3)cc2Cl)C(=O)O)c1 [Example 3, (2s)-2-(2,6-dichloro-4-(2-(hydroxy(m-hydroxyphenyl)phosphoryl)ethyl)benzamido)-3-(3-(methylsulfonyl)phenyl)propionic Acid]
10 | 11.8 | CP(=O)(C#Cc1cc(Cl)c(C(=O)N[C@@H](Cc2cccc(S(C)(=O)=O)c2)C(=O)O)c(Cl)c1)c1ccccc1 (some centres unmarked) [Example 9]
11 | 78 | CP(=O)(CCc1cc(Cl)c(C(=O)N[C@@H](Cc2cccc(S(C)(=O)=O)c2)C(=O)O)c(Cl)c1)c1ccccc1 (some centres unmarked) [Example 10, (2s)-2-(2,6-dichloro-4-(2-(methyl(phenyl)phosphoryl)ethyl)benzamide)-3-(3-(methylsulfonyl)phenyl)propionic Acid]
12 | 13.5 | CP(=O)(C#Cc1cc(Cl)c(C(=O)N[C@@H](Cc2cccc(S(C)(=O)=O)c2)C(=O)O)c(Cl)c1)c1cccc(O)c1 (some centres unmarked) [Example 11]
13 | 29 | COc1cccc(P(=O)(O)C#Cc2cc(Cl)c(C(=O)N[C@@H](Cc3cccc(S(C)(=O)=O)c3)C(=O)O)c(Cl)c2)c1 [Example 13]
14 | 8.5 | CP(=O)(CCc1cc(Cl)c(C(=O)N[C@@H](Cc2cccc(S(C)(=O)=O)c2)C(=O)O)c(Cl)c1)c1cccc(O)c1 (some centres unmarked) [Example 14]
15 | 1.8 | CP(=O)(C#Cc1cc(Cl)c(C(=O)N[C@@H](Cc2cccc(S(C)(=O)=O)c2)C(=O)O)c(Cl)c1)c1ccc(O)cc1 (some centres unmarked) [Example 15]
16 | 7.2 | CS(=O)(=O)c1cccc(C[C@H](NC(=O)c2c(Cl)cc(C#CP(=O)(O)c3ccccc3)cc2Cl)C(=O)O)c1 [Example 16]
17 | 15 | CP(=O)(CCc1cc(Cl)c(C(=O)N[C@@H](CNC(=O)c2cccs2)C(=O)O)c(Cl)c1)c1cccc(O)c1 (some centres unmarked) [Example 17, (2s)-2-(2,6-dichloro-4-(2-(methyl(3-hydroxyphenyl)phosphoryl)ethyl)benzamido)-3-(2-thenoylamide)propyl Acid]
